Measured values reported in patent US6762189B1, “5-pyrimidinecarboxamide derivatives and the pharmaceutical compositions containing said derivatives” (Dong Wha Pharm. Ind. Co., Ltd., priority 1999, dated 2004).

Legend:
[1] = molecular target: T1, HBV polymerase (Hepatitis B virus genotype A2 subtype adw2, UniProt P03159); experiment: In vitro reverse transcription activity of HBV polymerase (ELISA-type, DIG/biotin nucleotides); assay type: biochemical; conditions: read-out: Inhibition activity on HBV-RT (%); for inhibition at 0.01 µg/mL: 0.01 μg/ml test compound; for inhibition at 0.1 µg/mL: 0.1 μg/ml test compound; for inhibition at 1 µg/mL: 1 μg/ml test compound
T1 construct: made in house; host or cells: E. coli
T1 sequence (P03159 whole entry): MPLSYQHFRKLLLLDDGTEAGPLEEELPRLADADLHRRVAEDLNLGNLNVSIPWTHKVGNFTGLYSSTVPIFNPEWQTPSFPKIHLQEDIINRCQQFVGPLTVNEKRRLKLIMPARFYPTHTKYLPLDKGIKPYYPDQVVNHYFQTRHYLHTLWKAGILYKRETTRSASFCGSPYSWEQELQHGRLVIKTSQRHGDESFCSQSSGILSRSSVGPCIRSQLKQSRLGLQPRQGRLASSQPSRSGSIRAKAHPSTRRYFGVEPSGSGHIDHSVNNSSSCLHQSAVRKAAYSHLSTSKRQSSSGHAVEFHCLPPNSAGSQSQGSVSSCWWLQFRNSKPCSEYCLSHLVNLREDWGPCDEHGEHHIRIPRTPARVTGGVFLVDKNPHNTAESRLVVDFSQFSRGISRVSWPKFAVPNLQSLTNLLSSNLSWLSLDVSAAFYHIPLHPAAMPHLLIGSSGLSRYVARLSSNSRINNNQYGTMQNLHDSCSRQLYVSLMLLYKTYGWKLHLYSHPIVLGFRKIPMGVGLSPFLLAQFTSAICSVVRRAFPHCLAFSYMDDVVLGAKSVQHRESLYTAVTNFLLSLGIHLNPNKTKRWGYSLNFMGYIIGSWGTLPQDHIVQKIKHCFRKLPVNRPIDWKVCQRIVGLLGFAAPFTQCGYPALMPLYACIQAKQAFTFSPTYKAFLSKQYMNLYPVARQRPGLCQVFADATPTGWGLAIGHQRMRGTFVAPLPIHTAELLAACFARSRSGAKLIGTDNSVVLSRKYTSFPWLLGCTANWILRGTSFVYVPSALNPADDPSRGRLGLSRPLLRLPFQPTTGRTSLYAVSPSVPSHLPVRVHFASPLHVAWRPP
Method: The following in vitro experiment was performed to determine the effect of the compounds of formula 1 on the activity of HBV polymerase during reverse transcription.
The present inventors submitted application for a patent concerning HBV polymerase genetically expressed in and separated from E. coli, the process of its preparation, and the method to measure the enzyme activities (KR 94-3918, KR 96-33998). In the present experiments HBV polymerase was used which had been expressed in E. coli as stated above.
The method used in the present invention to measure in vitro reverse transcribing activities of HBV polymerase is as follows. Basic principles are the same as for ELISA. Nucleotides with biotin or digoxigenin group attached are included as substrates and anti-DIG antibodies attached to peroxidase enzyme recognize the polymerized substrates.
To the wells coated with streptavidin, 20 μl of HBV polymerase, 20 μl of reaction mixture (10 μM each of DIG-UTP and Biotin-UTP, 46 mM Tris-HCl, 266 mM KCl, 27.5 mM MgCl2, 9.2 mM DTT substrate/primer hybrid), and 20 μl of test compound (added to 1, 0.1, and 0.01 μg/ml) were added and allowed to react a 22° C. for 15 hrs. During this reaction, HBV polymerase catalyzes DNA synthesis and digoxigenin and biotin attached to nucleotides form bonds with streptavidin coated on the bottom of wells. When the reaction was done, each well was washed with 250μl of cleaning buffer (pH 7.0) for 30 seconds, which was repeated five times to remove remaining impurities. 200 μl of anti-DIG-POD antibody was added to each well and allowed to react for 1 hr at 37° C., and the wells were washed with cleaning buffer to remove impurities. 200μl each of ABTS™, a substrate of peroxidase, was then added and allowed to react at room temperature for 30 min. Absorbance was measured at 405 nm using ELISA reader.
The percentage of reduction in HBV polymerase activities for reverse transcription was calculated using the group without test compound as a control and the results are shown in Table 3.

[2] = system: HBV; experiment: Inhibition of HBV proliferation in HBV producing cell line HepG 2.2.15 (competitive PCR of culture supernatant); assay type: cell-based, Hepatitis B virus; conditions: Hepatitis B virus, HepG2.2.15, 168 h, HepG 2.2.15, one week, read-out: Inhibitory effect on the HBV proliferation, Inhibition activity on HBV-RT (%); for inhibition at 0.01 µg/mL: 0.01 μg/ml; for inhibition at 0.1 µg/mL: 0.1 μg/ml; for inhibition at 1 µg/mL: 1 μg/ml
Method: The following experiment was performed to determine inhibitory effects of compounds of formula on the proliferation of HBV producing cell line.
To test for antiviral effect, replication and proliferation of HBV were measured in HepG 2.2.15, a human liver cancer cell line.
The cell concentration was adjusted to 1×10^5 cells/ml and 1 ml was added to each well of a 24-well cell culture plate, which was then kept in a culture box for 3-4 days at 37° C. under 5% CO2 until cells grew sufficiently, changing culture medium everyday. When the cells matured sufficiently, the test compounds were added to the final concentrations of 0.01, 0.1, and 1 μg/ml. One week after the addition of test compounds, he culture solution was centrifuged at 5,000 rpm for 10 min. 25 μl of supernatant was transferred to a new tube and 5 μl of lysis solution [0.54N NaOH, 0.06% NP40] was added to each tube. After keeping the tube at 37° C. for 1 hr, 30 μl . of neutralizing solution [0.09NHCl, 0.1MTris-HCl, pH7.4] was added as a reaction solution for competitive polymerase chain reaction (PCR).
PCR was performed using genetic sequence of HBV core protein as a matrix. PCR reaction was carried out by adding 1 unit of Taq polymerase enzyme to 25 pmol of each primer, 250 μM dNTP, 5 μl of PCR reaction solution [0.54N NaOH, 0.06% NP40, 0.09N HCl, 0.1M Tris-HCl, pH 7.4].
DNA polymerized by PCR was electrophoresed on Agarose gel and quantitatively analyzed using an image analyzer (Gel Dcc 1000, Bio-Rad) in order to evaluate the effect of compounds of the present invention on the reduction of HBV proliferation.
3TC (lamivudine) was used as a positive control at the same concentrations as those of the test compounds. The percentage of reduction in HBV proliferation was calculated using the group without test compound as a control and the results are represented in Table 4.

| SMILES | inhibition at 0.01 µg/mL [1] [%] | inhibition at 0.1 µg/mL [1] [%] | inhibition at 1 µg/mL [1] [%] | inhibition at 0.01 µg/mL [2] [%] | inhibition at 0.1 µg/mL [2] [%] | inhibition at 1 µg/mL [2] [%] | melting point [°C] |
| --- | --- | --- | --- | --- | --- | --- | --- |
| CSc1ncc(C(=O)NCCc2ccccn2)c(Nc2ccc3[nH]ncc3c2)n1 [Example 27, 4-(1H-5-indazolylamino)-2-methylthio-N-[2-(2-pyridyl)ethyl]-5-pyrimidinecarboxamide] | 48 | 60 | 88 | 38 | 55 | 84 | 220 to 223 |
| CSc1ncc(C(=O)NCc2cccnc2)c(Nc2ccc3cn[nH]c3c2)n1 [Example 26, 4-(1H-6-indazolylamino)-2-methylthio-N-(3-pyridyl)methyl-5-pyrimidinecarboxamide] | 55 | 79 | 98 | 47 | 75 | 97 | 253 to 256 |
| COCCNC(=O)c1cnc(SC)nc1Nc1ccc2cn[nH]c2c1 [Example 14, 4-(1H-6-indazolylamino)-N-(2-methoxyethyl)-2-methylthio-5-pyrimidinecarboxamide] | 25 | 42 | 60 | – | – | – | 225 to 228 |
| CSc1ncc(C(=O)N2CCN(CCO)CC2)c(Nc2ccc3[nH]ncc3c2)n1 [Example 33, 5-[[4-(2-hydroxyethyl)-1-piperazinyl]carbonyl]-4-(1H-5-indazolylamino)-2-methylthiopyrimidine] | 11 | 32 | 53 | – | – | – | 166 to 170 |
| CSc1ncc(C(=O)N2CCN(CCO)CC2)c(Nc2ccc3cn[nH]c3c2)n1 [Example 34, 5-[[4-(2-hydroxyethyl)-1-piperazinyl]carbonyl]-4-(1H-6-indazolylamino)-2-methylthiopyrimidine] | 15 | 43 | 59 | – | – | – | 114 to 117 |
| CSc1ncc(C(=O)N2CCN(C)CC2)c(Nc2ccc3[nH]ncc3c2)n1 [Example 31, 4-(1H-5-indazolylamino)-5-[(4-methyl-1-piperazinyl)-carbonyl]-2-methylthiopyrimidine] | 43 | 58 | 82 | – | – | – | 153 to 155 |
| COC(=O)[C@@H](NC(=O)c1cnc(SC)nc1Nc1ccc2cn[nH]c2c1)[C@@H](C)O [Example 24, 4-(1H-6-indazolylamino)-N-[(1S)-1-(methoxycarbonyl)-(2R)-2-hydroxypropyl]-2-methylthio-5-pyrimidinecarboxamide] | 50 | 63 | 82 | – | – | – | 226 to 228 |
| CSc1ncc(C(=O)NCCN(C)C)c(Nc2ccc3[nH]ncc3c2)n1 [Example 17, N-[2-(dimethylamino)ethyl]-4-(1H-5-indazolylamino)-2-methylthio-5-pyrimidinecarboxamide] | 15 | 51 | 80 | – | – | – | 111 to 114 |
| CSc1ncc(C(=O)NCc2cccnc2)c(Nc2ccc3[nH]ncc3c2)n1 [Example 25, 4-(1H-5-indazolylamino)-2-methylthio-N-(3-pyridyl)methyl-5-pyrimidinecarboxamide] | 53 | 76 | 97 | 40 | 65 | 92 | 268 to 270 |
| CSc1ncc(C(=O)NN2CCN(C)CC2)c(Nc2ccc3[nH]ncc3c2)n1 [Example 21, 4-(1H-5-indazolylamino)-N-(4-methyl-1-piperazinyl)-2-methylthio-5-pyrimidinecarboxamide] | 40 | 54 | 78 | – | – | – | 251 to 253 |
| CSc1ncc(C(=O)N(C)C)c(Nc2ccc3[nH]ncc3c2)n1 [Example 15, N,N-dimethyl-4-(1H-5-indazolylamino)-2-methylthio-5-pyrimidinecarboxamide] | 42 | 61 | 77 | 25 | 52 | 70 | 101 to 105 |
| CSc1ncc(C(=O)NCCc2ccccn2)c(Nc2ccc3cn[nH]c3c2)n1 [Example 28, 4-(1H-6-indazolylamino)-2-methylthio-N-[2-(2-pyridyl)ethyl]-5-pyrimidinecarboxamide] | 52 | 70 | 95 | 44 | 68 | 93 | 230 to 231 |
| CSc1ncc(C(=O)NCCCn2ccnc2)c(Nc2ccc3cn[nH]c3c2)n1 [Example 30, N-[3-(1H-1-imidazolyl)propyl]-4-(1H-6-indazolylamino)-2-methylthio-5-pyrimidinecarboxamide] | 32 | 58 | 91 | – | – | – | 230 to 232 |
| COC(=O)[C@@H](NC(=O)c1cnc(SC)nc1Nc1ccc2[nH]ncc2c1)[C@@H](C)O [Example 23, 4-(1H-5-indazolylamino)-N-[(1S)-1-(methoxycarbonyl)-(2R)-2-hydroxypropyl]-2-methylthio-5-pyrimidinecarboxamide] | 18 | 40 | 51 | – | – | – | 227 to 232 |
| CSc1ncc(C(=O)N2CCN(C)CC2)c(Nc2ccc3cn[nH]c3c2)n1 [Example 32, 4-(1H-6-indazolylamino)-5-[(4-methyl-1-piperazinyl)-carbonyl]-2-methylthiopyrimidine] | 26 | 40 | 62 | – | – | – | 102 to 106 |
